From PMC9228535, “Antistaphylococcal Activities and ADME-Related Properties of Chlorinated Arylcarbamoylnaphthalenylcarbamates” (Pharmaceuticals, 2022)
In brackets after ≈: the same amount, converted by molar mass. Like-named read-outs stand apart in the source and are kept apart here.

Legend:
[1] = Lipophilicity determination by RP-HPLC (log k, log D); type: physicochemical; details: for log D6.5 / log D7.4 / log k: RP-HPLC; for log D6.5: MeOH 72%/acetate buffered saline pH 6.5; for log D7.4: MeOH 72%/acetate buffered saline pH 7.4; for log k: MeOH 72%/water 28%
Method: Lipophilicity was measured by reversed-phase high performance liquid chromatography (RP-HPLC) under isocratic conditions with methanol as the organic modifier in the aqueous mobile phase and the logarithm of the capacity factor k was calculated, which is used as the lipophilicity index converted to the log P scale. In addition to the log k values, the logarithm of the distribution coefficient DpH at pH 6.5 and 7.4 was determined to clarify the behavior of the compounds under physiological conditions and possible ionization. Instead of water, a buffer of suitable pH was used as part of the mobile phase. In addition to the above-mentioned experimental methods, commercially available ChemBioDraw Ultra 13.0 and ACD/Percepta ver. […] In addition to lipophilicity, other parameters discussed in Ro5, such as molecular weight, number of H-bond donors/acceptors, as well as parameters not reported in Ro5, but characterizing the physicochemical properties of the prepared molecules, such as number of rotatable bonds, were predicted using ACD/Percepta. Moreover, for each R substituent, bulkiness expressed as molar volume (MV [cm^3]), a parameter describing the tail length/branching of each carbamates, was calculated.
A HPLC separation module Agilent 1200 Series (Agilent Technologies, Santa Clara, CA, USA) equipped with a Dual Absorbance Detector (DAD SL G1315C, Agilent Technologies) was used. A chromatographic column Symmetry® C18 5 μm, 4.6 × 250 mm, Part No. W21751W016 (Waters Corp, Milford, MA, USA) was used. The HPLC separation process was monitored by ChemStation for LC 3D systems (Agilent Technologies). […] The total flow of the column was 1.0 mL/min, injection 20 μL, column temperature 40 °C, and sample temperature 10 °C. The detection wavelength of 210 nm was chosen. A KI methanolic solution was used for the determination of the dead times (tD). Retention times (tR) were measured in minutes. The capacity factors k were calculated according to the formula k = (tR − tD)/tD, where tR is the retention time of the solute, and tD is the dead time obtained using an unretained analyte. The distribution coefficients DpH were calculated according to the formula DpH = (tR − tD)/tD. Each experiment was repeated three times.

MRSA 63718 [2] = assay: MIC, microtitration broth method; type: cell-based; details: Staphylococcus aureus
Method: (§1) All the investigated compounds were screened for in vitro antibacterial activity against the reference and quality control strain Staphylococcus aureus ATCC 29213 and clinical isolates of methicillin-resistant S. aureus (MRSA) 63718, SA 630, and SA 3202 [14]. Activities are expressed as the minimum inhibitory concentrations (MICs), see Table 2. In addition to the MICs, the minimum bactericidal concentrations (MBCs) were also determined.
(§2) In vitro antibacterial activity of the synthesized compounds was evaluated against representatives of multidrug-resistant bacteria, three clinical isolates of methicillin-resistant S. aureus: clinical isolate of animal origin, MRSA 63718 (Department of Infectious Diseases and Microbiology, Faculty of Veterinary Medicine, University of Veterinary Sciences Brno, Czech Republic), carrying the mecA gene; and MRSA SA 630 [46] and MRSA SA 3202 [46] (National Institute of Public Health, Prague, Czech Republic), both of human origin. Suspected colonies were confirmed by PCR; a 108bp fragment specific for S. aureus was detected. All isolates were tested for the presence of the mecA gene encoding methicillin resistance. […] Vancomycin-susceptible methicillin-susceptible S. aureus (VS-MSSA) ATCC 29213, obtained from the American Type Culture Collection, was used as the reference and quality control strain. Enterococcus faecalis ATCC 29212 was obtained from the American Type Culture Collection and used as the reference and quality control strain.
(§3) The minimum inhibitory concentrations (MICs) were evaluated by the microtitration broth method according to the CLSI [64, 65] with some modifications. The compounds were dissolved in DMSO (Sigma, St. Louis, MO, USA) to get a concentration […] and diluted in a microtitration plate in an appropriate medium, namely, Cation Adjusted Mueller–Hinton (CaMH, Oxoid, Basingstoke, UK) for staphylococci (S. aureus ATCC 29213, clinical isolates of MRSA 63718, SA 630, and SA 3202) and brain heart infusion (BHI, Oxoid) for E. faecalis ATCC 29212, to reach the final concentration of 256-0.125 µg/mL. The plate was inoculated by the tested microorganisms. The final concentration of bacterial cells was 10^5 for bacteria. Ampicillin (Sigma) was used as reference drugs. A drug-free control and a sterility control were included. The plates were incubated for 24 h at 37 °C for staphylococci and E. faecalis ATCC 29212 (stability evaluation of the carbamates, see Supplementary materials, Table S1). […] The experiments were repeated three times.

MRSA SA 3202 [3] = assay: MIC, microtitration broth method; type: cell-based; details: Staphylococcus aureus
Method: as §1, §2, §3

MRSA SA 630 [4] = assay: MIC, microtitration broth method; type: cell-based; details: Staphylococcus aureus
Method: as §1, §2, §3

[5] = test system: Staphylococcus aureus ATCC 29213; assay: MIC, microtitration broth method; type: cell-based; details: ATCC29213, SA = S. aureus ATCC 29213, 24 h, read-out: MIC
Method: as §1, §2, §3

MRSA 63718 [6] = assay: MBC, agar aliquot subculture method; type: cell-based; details: Staphylococcus aureus
Method: as §1
(§4) For the S. aureus and MRSA isolates, the agar aliquot subculture method was used as a test for bactericidal agents. After the MIC value determination, the inoculum was transferred to Mueller–Hinton (Oxoid) agar using a multipoint inoculator. The plates were incubated in a thermostat at 37 °C for 24 h. The lowest concentration of test compound at which ≤5 colonies were obtained was then evaluated as MBC, corresponding to a 99.9% decrease in CFU relative to the original inoculum.

MRSA SA 3202 [7] = assay: MBC, agar aliquot subculture method; type: cell-based; details: Staphylococcus aureus
Method: as §1, §4

MRSA SA 630 [8] = assay: MBC, agar aliquot subculture method; type: cell-based; details: Staphylococcus aureus
Method: as §1, §4

[9] = test system: Staphylococcus aureus ATCC 29213; assay: MBC, agar aliquot subculture method; type: cell-based; details: ATCC29213, SA = S. aureus ATCC 29213, read-out: MBC
Method: as §1, §4

[10] = test system: Enterococcus faecalis ATCC 29212; assay: MIC, microtitration broth method; type: cell-based; details: ATCC29212; EF = Enterococcus faecalis, 24 h; read-out: MIC
Method: as §2, §3

THP-1 cells = assay: In vitro cytotoxicity assay (WST-1); type: cell-based; details: Homo sapiens; THP-1, 24 h, ± SD, n = 6; read-out: IC50
Method: Preliminary in vitro cytotoxicity screening of the investigated compounds was performed using human monocytic leukemia THP-1 cells, see Table 2. The ability to inhibit the human cancer cell viability (IC50) of the compounds was compared to camptothecin toxicity (0.16 ± 0.07 μM). […] However, these values are up to two orders of magnitude higher than their significant antistaphyloccocal concentrations. This fact is also taken into account in the calculated selectivity index (SI), Table 2, where for only three compounds the SI is <20, while for the rest of the agents SI is >20, and for some derivatives even 100 and more. Thus, based on all these observations, it can be concluded that all the tested derivatives can be considered as in vitro non-toxic compounds for the subsequent design of new therapeutic agents.
The human THP-1 cell line (European Collection of Cell Cultures, Salisbury, UK) was cultured in RPMI 1640 medium supplemented with 10% fetal bovine serum, 2% L-glutamine, 1% penicillin, and streptomycin at 37 °C with 5% CO2. Cells were passaged at approximately 1-week intervals. All the tested compounds were prepared and dissolved as mentioned in our previous work.

Structure (SMILES)	lipophilicity (experimental log k/log D, approximate) [1]	log D6.5 [1]	log D7.4 [1]	log k [1]	MIC (MRSA 63718 [2]; MRSA, 24 h)	MIC (MRSA SA 3202 [3]; 24 h)	MIC (MRSA SA 630 [4]; 24 h)	MIC [5]	MBC (MRSA 63718 [6]; MRSA)	MBC (MRSA SA 3202 [7])	MBC (MRSA SA 630 [8])	MBC [9]	MIC [10]	IC50 (THP-1 cells)	further results
O=C(NCCCCc1ccccc1)Oc1c(C(=O)Nc2cc(Cl)c(Cl)cc2Cl)ccc2ccccc12 [Compound 14, 2-[N-(2,4,5-Trichlorophenyl)carbamoyl]naphthalen-1-yl 4-phenylbutyl carbamate]	ca. 1.25	1.5193	1.5191	1.5167	0.231 µM (≈ 0.125 µg/mL)	0.231 µM (≈ 0.125 µg/mL)	0.116 µM (≈ 0.0629 µg/mL)	0.116 µM (≈ 0.0629 µg/mL)	0.231 µM (≈ 0.125 µg/mL)	0.461 µM (≈ 0.25 µg/mL)	0.461 µM (≈ 0.25 µg/mL)	0.116 µM (≈ 0.0629 µg/mL)	118 µM (≈ 63.9 µg/mL)	2.73 ± 0.37 µM	lipophilicity (experimental log k/log D, approximate) ([1]; listed as 15): ca. 1.52
CC(C)NC(=O)Oc1c(C(=O)Nc2cc(Cl)c(Cl)cc2Cl)ccc2ccccc12 [Compound 9, 2-[N-(2,4,5-Trichlorophenyl)carbamoyl]naphthalen-1-yl isopropyl carbamate]		0.9579	1.0468	0.9526	0.139 µM (≈ 0.0628 µg/mL)	0.277 µM (≈ 0.125 µg/mL)	0.035 µM (≈ 0.0158 µg/mL)	0.018 µM (≈ 0.00813 µg/mL)	0.139 µM (≈ 0.0628 µg/mL)	0.277 µM (≈ 0.125 µg/mL)	0.277 µM (≈ 0.125 µg/mL)	0.018 µM (≈ 0.00813 µg/mL)	142 µM (≈ 64.1 µg/mL)	3.26 ± 0.08 µM	
O=C(NC1CCCCCC1)Oc1c(C(=O)Nc2cc(Cl)c(Cl)cc2Cl)ccc2ccccc12 [Compound 12, 2-[N-(2,4,5-Trichlorophenyl)carbamoyl]naphthalen-1-yl cycloheptyl carbamate]	ca. 1.45	1.4492	1.4527	1.4469	0.247 µM (≈ 0.125 µg/mL)	0.494 µM (≈ 0.25 µg/mL)	0.494 µM (≈ 0.25 µg/mL)	0.494 µM (≈ 0.25 µg/mL)	0.247 µM (≈ 0.125 µg/mL)	0.494 µM (≈ 0.25 µg/mL)	0.494 µM (≈ 0.25 µg/mL)	0.494 µM (≈ 0.25 µg/mL)	127 µM (≈ 64.2 µg/mL)	3.24 ± 0.12 µM	
O=C(NC1CCCC1)Oc1c(C(=O)Nc2cc(Cl)c(Cl)cc2Cl)ccc2ccccc12 [Compound 10, 2-[N-(2,4,5-Trichlorophenyl)carbamoyl]naphthalen-1-yl cyclopentyl carbamate]	ca. 1.15	1.1521	1.1515	1.1481	0.262 µM (≈ 0.125 µg/mL)	2.09 µM (≈ 0.999 µg/mL)	0.262 µM (≈ 0.125 µg/mL)	0.262 µM (≈ 0.125 µg/mL)	0.262 µM (≈ 0.125 µg/mL)	2.09 µM (≈ 0.999 µg/mL)	1.05 µM (≈ 0.5 µg/mL)	0.262 µM (≈ 0.125 µg/mL)	268 µM (≈ 128 µg/mL)	3.23 ± 0.29 µM	
CC1(C)S[C@@H]2[C@H](NC(=O)[C@H](N)c3ccccc3)C(=O)N2[C@H]1C(=O)O [APM, ampicillin, reference compound]								5.72 µM (≈ 2 µg/mL)				> 5.72 µM			MIC (MRSA 63718 [2]; MRSA1 = MRSA 63718, 24 h, read-out: MIC): 45.8 µM (≈ 16 µg/mL); MIC (MRSA SA 3202 [3]; MRSA3 = SA 3202, 24 h, read-out: MIC): 45.8 µM (≈ 16 µg/mL); MIC (MRSA SA 630 [4]; MRSA2 = SA 630, 24 h, read-out: MIC): 45.8 µM (≈ 16 µg/mL); MBC (MRSA 63718 [6]; MRSA1 = MRSA 63718, read-out: MBC): > 45.8 µM; MBC (MRSA SA 3202 [7]; MRSA3 = SA 3202, read-out: MBC): > 45.8 µM; MBC (MRSA SA 630 [8]; MRSA2 = SA 630, read-out: MBC): > 45.8 µM
